Laboratory results from patent publication US9539223B2, “Methods for treating bacterial infections” (Neoculi Pty Ltd., priority 2013, dated 2017).
In brackets after ≈: the same amount, converted by molar mass. Several values for one entry are separate records, joined by “and”; a condition that tells them apart may be missing. Equal values may be shown once.

Columns and labels:
[1] = tested on: methicillin-resistant Staphylococcus aureus (MRSA); test: Minimum inhibitory concentration assay (CLSI), MRSA isolates; type: cell-based; conditions: ATCC control strains
Protocol: Minimum inhibitory concentration tests were performed according to CLSI Standards (CLSI 2008). […] The solutions were then serially diluted across the row, leaving 2 columns for positive and negative controls. A bacterial suspension was prepared by adding fresh colonies obtained from an overnight culture on Sheep Blood Agar (SBA) to a 9.1 g/L saline solution. This suspension was adjusted to a concentration of between 4×10^8 and 5×10^8 CFU/mL. Concentration of the suspension was determined by measuring optical density (OD) using a spectrophotometer at a wavelength of 600 nm where the correct concentration was determined to have an optical density of between 1.00 and 1.20. One milliliter of this suspension was added to 9 mL of saline before being added to all wells, excluding the negative control wells, in 10 μL volumes giving a final concentration of between 4×10^5 and 5×10^5 CFU/mL in each well. The tests were then incubated for 24 hours at 37° C. and then assessed both visually and using OD readings from a microplate reader at a wavelength of 600 nm. These tests were performed in duplicate but repeated if discrepancies were observed.
The minimum inhibitory concentration (MIC) was determined to be the lowest concentration of antibiotic that prevented growth of bacteria both visually and using OD readings.

[2] = tested on: methicillin-resistant and methicillin-susceptible Staphylococcus aureus; test: MIC by broth microdilution (CLSI), S. aureus clinical isolates; type: cell-based; conditions: positive control
Protocol: Microtiter plates containing two-fold dilutions of each antimicrobial agent were inoculated with ˜10^5-CFU/ml of each isolate in a 100-μl final volume. Plates were incubated for 24-h at 37° C. Turbidity (absorbance at OD600) was measured using a Bio-Rad Benchmark Plus microplate spectrophotometer in Microplate Manager® version 5.2.1 (Bio-Rad). Minimum inhibitory concentration (MIC) endpoints were defined as the lowest antimicrobial concentration assessed by the spectrophotometer that inhibited bacterial growth. ATCC 49775 was included in the isolate collection as a control organism using breakpoints defined by the CLSI. The MIC50, MIC90 (concentrations that inhibited growth of the lower 50% and 90% of total organisms, respectively), and MIC range (minimum and maximum) were calculated to profile the antimicrobial susceptibility of the isolate collection.

S. pneumoniae [3] = test: MIC by micro-broth dilution, pneumococcal isolates; type: cell-based, Streptococcus pneumoniae
Protocol: (§1) [Micro-broth dilutions and 96-well trays are prepared by the following method: 90 μL of 4% LHB: CAMHB is aliquotted into all wells using a multichannel pipette. 90 μl of working antimicrobial stocks were no serial diluted down the tray by a 1:2 dilution. Negative broth controls and dilution control were taken into account when planning the set up of a 96-well tray.] 10 μL of bacterial suspension was then added to the appropriate wells in the 96 well tray. Appropriate positive (no antimicrobial), negative (no antimicrobial or bacteria) and negative dilution (a serial dilution control of antimicrobial and broth) controls were included in each assay. […] The MBC was determined by a 99.95% inhibition of S. pneumoniae, taking into account the dilution factor. MICs and MBCs were determined in quadruplicate and the mode was taken as the representative value. The MIC50, MIC90 and MIC range and MBC50, MBC90 and MBC range were determined according to CLSI standards. The MIC50 and MIC90, or MBC50 and MBC90, are defined by the lowest concentrations which, when all the MICs and MBCs of the isolates are arranged from lowest to highest, inhibited the 50th and 90th percentile of the total amount of isolates, respectively.

S. pneumoniae [4] = test: MBC, pneumococcal isolates; type: cell-based, Streptococcus pneumoniae; conditions: isolate WCH16
Protocol: as §1

S. aureus strain T3-29 = test: Checkerboard synergy study, S. aureus T3-29; type: cell-based, Staphylococcus aureus
Protocol: (§2) Firstly, the MIC of each antibiotic alone was determined in accordance to CLSI standard guidelines.
(§3) According to the checkerboard guidelines, Synergy (S) was defined as an FICI<0.5. No effect (NE) was defined as 0.5<FICI<4. Antagonism (A) was defined as a 4<FICI.

[5] = tested on: Staphylococcus spp. Strain MK1; test: Checkerboard synergy study, Staphylococcus spp. MK1; type: cell-based; set-up: key to FIC1 (last-but-one column; FIC index of antibiotic + NCL812): FICI: <0.5 synergy, 0.5-4 no effect, >4 antagonism; conditions: Staphylococcus spp. Strain MK1
Protocol: as §2, §3

S. aureus ATCC 29213 [6] = test: MIC assay (CLSI M07-A8) in Mueller Hinton II Broth; type: cell-based, Staphylococcus aureus; conditions: S. aureus ATCC 29213, quality control agent
Description: The MIC assay method followed the procedure described by the Clinical and Laboratory Standards Institute, or CLSI (Clinical and Laboratory Standards Institute). […] The medium employed for the MIC assay was Mueller Hinton II Broth (MHB II—Becton Dickinson, Sparks, Md.; Cat No 212322; Lot 9044411). S. aureus ATCC 29213 served as the quality control strain, and linezolid was utilized as the quality control antibiotic to validate the assay.

S. aureus ATCC 29213 [7] = test: ATP release assay (CellTiter-Glo); type: cell-based, Staphylococcus aureus; conditions: 8-fold the MIC (256 μg/ml), 30 min exposure
Description: The CellTiter-Glo Luminescent Cell Viability Assay (Promega) was utilized to measure the leakage of ATP from bacteria. […] The negative control received 2% DMSO, which represented the final DMSO concentration in each assay. […] Results were expressed as ATP concentration released to the medium (μM).

Compound: CC1(C)S[C@@H]2[C@H](NC(=O)[C@H](N)c3ccccc3)C(=O)N2[C@H]1C(=O)O [Ampicillin]
- MIC values against CLSI recommendations [1]: within the normal range expected
- MIC values against CLSI guidelines [2]: within the normal range expected
- MIC Range (S. pneumoniae [3]; 20 S. pneumoniae strains): 0.011 to 0.09 µg/mL
- MIC (S. pneumoniae [3]; Streptococcus pneumoniae): 0.023 µg/mL (≈ 0.0658 µM)
- MIC50 (S. pneumoniae [3]; Streptococcus pneumoniae): 0.023 µg/mL (≈ 0.0658 µM)
- MIC90 (S. pneumoniae [3]; Streptococcus pneumoniae): 0.023 µg/mL (≈ 0.0658 µM)
- MIC (S. pneumoniae [3]; isolate EF3030): 0.023
- MIC (S. pneumoniae [3]; isolate WCH184): 0.045
- MBC (S. pneumoniae [4]): Autolysis
- Result (interaction of antibiotic with NCL812) (S. aureus strain T3-29): NE (No effect (NE) was defined as 0.5<FICI<4)

Compound: O=C(N[C@H](CO)[C@H](O)c1ccc([N+](=O)[O-])cc1)C(Cl)Cl [Chloramphenicol, chloramphenicol]
- FIC1 (last-but-one column; FIC index of antibiotic + NCL812) (S. aureus strain T3-29): 0.75
- Result (interaction of antibiotic with NCL812) (S. aureus strain T3-29): NE (No effect (NE) was defined as 0.5<FICI<4)

Compound: O=C(O)c1cn(C2CC2)c2cc(N3CCNCC3)c(F)cc2c1=O [Ciprofloxacin, ciprofloxacin]
- Antibiotic MIC Alone [5]: 0.125 µg/mL and 0.25 µg/mL
- FIC1 (last-but-one column; FIC index of antibiotic + NCL812) [5]: 0.75 and 0.525 and 0.625 and 0.562
- Result (interaction of antibiotic with NCL812) [5]: NE (No effect (NE) was defined as 0.5<FICI<4)

Compound: CC[C@H]1OC(=O)[C@H](C)[C@@H](O[C@H]2C[C@@](C)(OC)[C@@H](O)[C@H](C)O2)[C@H](C)[C@@H](O[C@@H]2O[C@H](C)C[C@H](N(C)C)[C@H]2O)[C@](C)(O)C[C@@H](C)C(=O)[C@H](C)[C@@H](O)[C@]1(C)O [Erythromycin, erythromycin]
- MIC (S. pneumoniae [3]; Streptococcus pneumoniae): 0.00275 µg/mL (≈ 0.00375 µM)
- Result (interaction of antibiotic with NCL812) (S. aureus strain T3-29): NE (No effect (NE) was defined as 0.5<FICI<4)

Compound: CC(=O)NC[C@H]1CN(c2ccc(N3CCOCC3)c(F)c2)C(=O)O1 [Linezolid, linezolid]
- MIC against CLSI quality control range (S. aureus ATCC 29213 [6]): within the CLSI-established quality control range

Compound: CC1(C)S[C@@H]2[C@H](NC(=O)Cc3ccccc3)C(=O)N2[C@H]1C(=O)O [Penicillin G, penicillin G]
- Antibiotic MIC Alone [5]: 0.125 µg/mL and 0.25 µg/mL
- Antibiotic MIC With NCL812 [5]: 0.062 µg/mL and 0.031 µg/mL
- FIC1 (last-but-one column; FIC index of antibiotic + NCL812) [5]: 1 and 0.625
- Result (interaction of antibiotic with NCL812) [5]: NE (No effect (NE) was defined as 0.5<FICI<4)

Compound: Cc1cc(NS(=O)(=O)c2ccc(N)cc2)no1 [Sulfamethoxazole, sulfamethoxazole]
- Antibiotic MIC Alone [5]: 8 µg/mL
- Antibiotic MIC With NCL812 [5]: 4 µg/mL
- FIC1 (last-but-one column; FIC index of antibiotic + NCL812) [5]: 0.75 and 1
- FIC1 = MIC of antibiotic in combination with NCL812/MIC of antibiotic alone [5]: 0.5
- Result (interaction of antibiotic with NCL812) [5]: NE (No effect (NE) was defined as 0.5<FICI<4)

Compound: CN(C)[C@@H]1C(O)=C(C(N)=O)C(=O)[C@@]2(O)C(O)=C3C(=O)c4c(O)cccc4[C@@](C)(O)[C@H]3C[C@@H]12 [Tetracycline, tetracycline]
- FIC1 (last-but-one column; FIC index of antibiotic + NCL812) (S. aureus strain T3-29): 0.75 and 0.62
- Result (interaction of antibiotic with NCL812) (S. aureus strain T3-29): NE (No effect (NE) was defined as 0.5<FICI<4)

Compound: gentamicin
- Antibiotic MIC Alone [5]: 1 µg/mL and 0.5 µg/mL
- Result (interaction of antibiotic with NCL812) [5]: NE (No effect (NE) was defined as 0.5<FICI<4)

Compound: polymyxin B [reference compound]
- maximal release of ATP (S. aureus ATCC 29213 [7]): approximately 0.34 μM
